{"source": "paper PMC8291587", "about": "“Guanidine Derivatives: How Simple Structural Modification of Histamine H3R Antagonists Has Led to the Discovery of Potent Muscarinic M2R/M4R Antagonists” (ACS Chemical Neuroscience, 2021)", "key": {"H1R": {"biological_target": "T1, H1R (Cavia porcellus, UniProt P31389)", "T1 construct": "from tissue; host or cells: isolated distal ileum of male guinea pigs", "T1 sequence (P31389 whole entry)": "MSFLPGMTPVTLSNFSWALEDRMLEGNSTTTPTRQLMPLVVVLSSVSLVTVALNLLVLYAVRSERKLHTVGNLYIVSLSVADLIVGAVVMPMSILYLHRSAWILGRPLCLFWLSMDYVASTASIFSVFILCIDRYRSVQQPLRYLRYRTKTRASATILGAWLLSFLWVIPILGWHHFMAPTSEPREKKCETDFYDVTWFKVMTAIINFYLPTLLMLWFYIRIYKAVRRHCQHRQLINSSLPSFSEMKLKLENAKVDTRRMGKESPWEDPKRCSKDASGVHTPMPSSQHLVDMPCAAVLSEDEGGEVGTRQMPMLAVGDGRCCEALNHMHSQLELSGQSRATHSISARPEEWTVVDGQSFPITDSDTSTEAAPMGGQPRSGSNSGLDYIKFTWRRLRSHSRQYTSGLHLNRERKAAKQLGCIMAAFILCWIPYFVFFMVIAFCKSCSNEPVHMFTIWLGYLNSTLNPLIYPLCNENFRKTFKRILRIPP", "assay": "Ex vivo screening of histamine H1R antagonists on guinea pig ileum, variant with 0.05 μM atropine", "conditions": "isolated guinea pig ileum, histamine as agonist", "description": "The second histamine receptor located in the guinea pig ileum is H1R. […] The H1R antagonistic effect was measured on isolated guinea pig ileum stimulated to contract by histamine.[37] To assess and exclude the influence of the ADS compounds on muscarinic receptors, two test variations were used: one with the addition of 0.05 μM atropine and one without.\nMale guinea pigs, weighing 300–400 g, were euthanized by a blow to the neck. A 20–30 cm length of the distal ileum, apart from the terminal 5 cm, was rapidly removed and placed in phosphate buffer at room temperature (pH 7.4) containing (mM) NaCl (136.9), KCl (2.6), KH2PO4 (1.47), Na2HPO4 (9.58), and indomethacin (1 × 10^–6 mol/L). The intraluminal content was rinsed, and the isolated intestine was cut into 1.5–2 cm segments. The preparations were mounted isotonically in a 20 mL organ bath filled with Krebs buffer: composition (mM) NaCl (118), KCl (5.6), MgSO4 (1.18), CaCl2 (2.5), NaH2PO4·H2O (1.28), NaHCO3 (25), glucose (5.55), and indomethacin (3 × 10^–7 mol/L). […] The solution was continuously bubbled with a 95% O2:5% CO2 mixture and maintained at 37 °C under a constant load of 0.5 g (Hugo Sachs Hebel–Messvorsatz (Tl-2)/HF-modem; Hugo Sachs Elektronik, Hugstetten, Germany) connected to a pen recorder (Kipp & Zonen BD41, Delft, Holland). During an equilibration period of 40 min, Krebs buffer was changed every 10 min. The first cumulative concentration–response curve was determined for histamine (10 nM to 10 mM) at increasing concentrations spaced by 3- or 3.3-fold. The second to the fourth (or fifth) curves were measured in the presence of an increasing concentrations of antagonist (incubation time 10 min). The pA2 values were calculated according to Arunlakshana and Schild.[37] Statistical analysis was carried out with the Students’ t test. In all tests, a p < 0.05 was considered statistically significant."}, "hM1R": {"biological_target": "T2, hM1R (Homo sapiens, UniProt P11229)", "T2 construct": "host or cells: CHO cells, stably transfected; crude membranes", "T2 sequence (P11229 1-460)": "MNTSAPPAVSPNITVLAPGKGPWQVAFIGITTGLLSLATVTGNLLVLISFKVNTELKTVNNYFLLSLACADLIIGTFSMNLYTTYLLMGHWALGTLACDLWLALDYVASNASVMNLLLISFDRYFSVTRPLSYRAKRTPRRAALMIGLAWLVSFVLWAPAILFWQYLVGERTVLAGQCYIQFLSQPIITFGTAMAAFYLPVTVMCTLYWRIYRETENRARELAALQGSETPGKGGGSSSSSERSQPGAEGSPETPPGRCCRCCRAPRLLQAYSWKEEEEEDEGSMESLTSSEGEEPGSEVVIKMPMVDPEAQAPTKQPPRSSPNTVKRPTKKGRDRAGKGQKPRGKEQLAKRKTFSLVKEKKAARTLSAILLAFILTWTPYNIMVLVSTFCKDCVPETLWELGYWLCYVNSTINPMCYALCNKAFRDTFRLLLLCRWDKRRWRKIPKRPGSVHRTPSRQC", "assay": "hM1R radioligand binding ([3H]NMS, CHO cell membranes)", "description": "To clearly explain the obtained outcome, we engaged the radioligand binding experiment. The hM1–hM5 radioligand binding experiments were performed in the membrane fractions of Chinese hamster ovary cells (CHO) stably expressing human variants of muscarinic receptors. N-[^3H]Methylscopolamine was used as the radiolabeled ligand.[39] Three compounds were selected from ex vivo screening on guinea pig ileum. […] This compound is also not completely selective for the remaining muscarinic receptor subtypes with −log Ki values over 6. […] It is also a potent muscarinic M1R antagonist, and the M1R/M2R selectivity ratio is <10. It is worth noting that such nonspecific anticholinergics are often associated with neuropsychiatric and cognitive disturbances and that nonselective muscarinic M1R/M2R antagonists, such as scopolamine, can produce cognitive deficits. Further structural modifications of ADS10227 should be used to increase selectivity toward the M2R, as these may present fewer potential side effects associated with the activation of the phospholipase C signaling pathway.\nThe culture was derived from CHO cells stably transfected with the genes of human variants of muscarinic receptors. These were purchased from Missouri S&T cDNA Resource Center (Rolla, MO, USA). Cell cultures and crude membranes were prepared as described previously.[45] The cells were grown to confluence in 75 cm^2 flasks in Dulbecco’s modified Eagle’s medium (DMEM) supplemented with 10% fetal bovine serum, and 2 million cells were subcultured to 100 mm Petri dishes. The medium was supplemented with 5 mM butyrate for the last 24 h of cultivation to increase receptor expression. Cells were detached by mild trypsinization on day 5 after subculture. Detached cells were washed twice in 50 mL of phosphate-buffered saline and 3 min centrifugation at 250g. […]\nAll radioligand binding experiments were optimized and carried out according to general guidelines.[39] […] N-Methylscopolamine binding was measured directly in saturation experiments using six concentrations (30–1000 pM) of [^3H]NMS during incubation for 1 h (M2R), 3 h (M1R, M3R, and M4R), or 5 h (M5R). For calculations of the equilibrium dissociation constant (KD), concentrations of free [^3H]NMS were calculated by subtraction of bound radioactivity from total radioactivity in the sample and fitting eq 1 (Experimental Data analysis section). The binding of the tested ligands was determined in competition experiments with 100 pM [^3H]NMS. […] Nonspecific binding was determined in the presence of 1 μM unlabeled atropine. […]"}, "[1]": {"conditions": "read-out: H1R+atropine pA2 gpi ± sem (converted)"}, "[2]": {"conditions": "read-out: hM1R -log(Ki) ± sem (converted)"}}, "note": "Read-outs that look alike come from different tables or passages of the source.", "data": [{"smiles": "N=C(N)N(CCCCN1CCN(CCCCCCCOc2ccccc2)CC1)Cc1ccccc1", "note": "[ADS1017]", "values": [{"measurement": "Kb", "setting": "H1R; H1R+atropine pA2 gpi ± sem", "result": 251, "unit": "nM"}, {"measurement": "Ki", "setting": "hM1R; hM1R -log(Ki) ± sem", "result": 141, "unit": "nM"}]}, {"smiles": "N=C(N)N(CCCCN1CCN(C[C@H]2CC[C@@H](COc3ccccc3)CC2)CC1)Cc1ccccc1", "note": "[ADS10227, 1-{4-{4-{[4-(phenoxymethyl)cyclohexyl]methyl}piperazin-1-yl}but-1-yl}-1-(benzyl)guanidine]", "values": [{"measurement": "Kb", "setting": "H1R; [1]", "result": 257, "unit": "nM"}, {"measurement": "Ki", "setting": "hM1R; [2]", "result": 19.5, "unit": "nM"}]}, {"smiles": "[H]/N=C(/N)N(CCCCN1CCN(CC2CCC(COc3ccccc3)CC2)CC1)Cc1ccc(C(F)(F)F)cc1", "note": "(stereo not shown) [ADS10239]", "values": [{"measurement": "Kb", "setting": "H1R; [1]", "result": 151, "unit": "nM"}, {"measurement": "Ki", "setting": "hM1R; read-out: affinity to hM1R (Ki)", "result": 45, "unit": "nM"}, {"measurement": "Ki", "setting": "hM1R; [2]", "result": 46.8, "unit": "nM"}]}]}
